Laboratory results as given in ChEMBL document CHEMBL1201862, “PubChem BioAssay data set” (2004).
The source made the active and inactive calls. Cut-off read from the data, not from the text of the source, for most assays here: actives have a measured EC50 and inactives only a lower limit.

Columns and labels:
[1] = target: T1, Heat shock factor protein 1 (Mus musculus, UniProt P38532); assay: enhancement of HSF1-driven luciferase signal – cell-based, NIH3T3, luminescence, dose retest, confirmation (AID 435004); assay type: functional;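 note: stress induced by proteasome inhibitor MG132 added 30 min after compound; luciferase reporter driven by HSF1 response element in NIH3T3 cells; actives raise luminescence as potentiators of the MG132 stress response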
T1 sequence (P38532 whole entry): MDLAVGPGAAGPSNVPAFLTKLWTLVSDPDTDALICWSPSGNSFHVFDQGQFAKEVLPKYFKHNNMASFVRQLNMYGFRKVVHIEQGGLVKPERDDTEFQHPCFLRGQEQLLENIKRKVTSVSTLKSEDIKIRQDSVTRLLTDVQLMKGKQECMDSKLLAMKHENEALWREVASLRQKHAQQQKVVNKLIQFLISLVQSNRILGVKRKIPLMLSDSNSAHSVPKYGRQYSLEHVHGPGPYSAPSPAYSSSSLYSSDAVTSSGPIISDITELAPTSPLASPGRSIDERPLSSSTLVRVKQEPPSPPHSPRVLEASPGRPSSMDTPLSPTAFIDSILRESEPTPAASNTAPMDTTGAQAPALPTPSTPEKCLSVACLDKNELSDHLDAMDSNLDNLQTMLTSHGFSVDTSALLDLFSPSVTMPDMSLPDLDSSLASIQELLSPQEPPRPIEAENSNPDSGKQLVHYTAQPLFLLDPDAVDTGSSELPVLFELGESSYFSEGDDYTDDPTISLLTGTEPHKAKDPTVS

[2] = microbe, parasite or virus in culture; assay type: functional; conditions: Mycobacterium tuberculosis
INS1 = assay: INS-1E survival protection against cytokine death – cell-based, luminescence, retest, dose response (AID 449756); assay type: functional; conditions: Rattus norvegicus;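 note: cell death triggered by IL-1 beta plus TNF-alpha plus IFN-gamma mixture; protective hits raise ATP signal compared with cytokine alone wells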
Protein skinhead-1 = target: T2, Protein skinhead-1 (Caenorhabditis elegans, UniProt P34707); assay type: functional
T2 sequence (P34707 whole entry): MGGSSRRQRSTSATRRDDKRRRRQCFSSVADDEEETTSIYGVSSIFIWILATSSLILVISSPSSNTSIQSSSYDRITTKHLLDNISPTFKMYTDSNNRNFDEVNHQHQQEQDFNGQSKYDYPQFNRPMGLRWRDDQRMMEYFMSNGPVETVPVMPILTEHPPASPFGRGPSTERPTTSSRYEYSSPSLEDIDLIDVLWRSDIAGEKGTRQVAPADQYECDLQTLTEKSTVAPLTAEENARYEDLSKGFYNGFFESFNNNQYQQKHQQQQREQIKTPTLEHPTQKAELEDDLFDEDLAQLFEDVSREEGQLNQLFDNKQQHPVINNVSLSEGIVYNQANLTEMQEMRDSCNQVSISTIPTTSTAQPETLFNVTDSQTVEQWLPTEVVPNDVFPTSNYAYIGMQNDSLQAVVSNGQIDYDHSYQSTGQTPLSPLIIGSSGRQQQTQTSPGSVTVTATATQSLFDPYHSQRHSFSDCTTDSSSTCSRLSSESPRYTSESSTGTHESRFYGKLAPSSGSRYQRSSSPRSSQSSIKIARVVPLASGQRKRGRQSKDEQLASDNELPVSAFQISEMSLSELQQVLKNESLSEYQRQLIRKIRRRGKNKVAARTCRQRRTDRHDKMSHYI

[3] = NIH-3T3 fibroblast cytotoxicity, dose response, cytotoxicity control, cell-based, fluorescence, Alamar Blue, secondary assay (AID 2327); assay type: functional;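 note: NIH-3T3 mouse fibroblasts cultured with fluconazole at 8 µg/mL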
[4] = alpha-synuclein stem-loop luciferase translation blockers – H4 neuroglioma cells, luminescence, confirmation (AID 1988); assay type: functional, cell-based
[5] = fluconazole-exposed Candida albicans growth modulators – fluorescence, retest, confirmation (AID 2467); assay type: functional, cell-based
[6] = Luminescence Cell-Based Dose Response HTS to Identify Inhibitors of 5'UTR Stem-Loop Driven Prion Protein mRNA Translation in H4 Neuroglioblastoma Cells. [Related pubchem assays: 1827 (Project Summary), 1813 (Primary HTS)]; assay type: functional
[7] = luciferase reporter signal suppression in cells – H4 neuroglioma cells, luminescence, dose response (AID 1990); assay type: functional, cell-based
[8] = viability of HCT116 lacking mutant beta-catenin – cell-based, human colon tumor, dose response (AID 1045); assay type: functional;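 note: HCT116 colon tumor cells with beta catenin knocked out; cells exposed to compound for 60 hours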
[9] = viability of PTEN-deleted HCT116 cells – cell-based, HCT116 PTEN knockout, dose response (AID 1047); assay type: functional;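 note: HCT116 colon tumor cells with PTEN knocked out; cells exposed to compound for 60 hours before readout; potency for loss of cell viability measured by luminescence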
[10] = Luminescence Cell-Based Dose Confirmation HTS to Identify Activators of 5'UTR Stem-Loop Driven Alpha-Synuclein mRNA Translation in H4 Neuroglioblastoma Cells. [Related pubchem assays: 1829 (Project Summary), 1814 (Primary HTS)]; assay type: functional
H4 = assay: Luminescence Cell-Based Dose Response HTS to Identify Activators of 5'UTR Stem-Loop Driven Prion Protein mRNA Translation in H4 Neuroglioblastoma Cells. [Related pubchem assays: 1829 (Project Summary), 1814 (Primary HTS)]; assay type: functional; conditions: Homo sapiens
[11] = Luminescence Cell-Based Dose Response HTS to Identify Activators of Luciferase Translation or Activity in H4 […] Cells. [Related pubchem assays: 1829 (Project Summary), 1814 (Primary HTS)]; assay type: functional
[12] = Luminescence Cell-Based Dose Retest to Confirm Inhibitors of Cancer Stem Cells. [Related pubchem assays (depositor defined):AID2717, AID2721]; assay type: functional; conditions: Homo sapiens
[13] = NIH3T3 cell viability loss – ATP luminescence, mouse fibroblasts, counter-screen, dose response (AID 2010); assay type: functional, cell-based;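 note: cells exposed to compound for about 90 hours before reading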
[14] = Trypanosoma cruzi growth suppression in host cells – NIH3T3 host cells, beta-gal luminescence, confirmation (AID 2044); assay type: functional, cell-based;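 note: intracellular parasites grown in NIH/3T3 mouse fibroblasts as host cells; luminescent beta-galactosidase reporter signal from transgenic T. cruzi replicating inside host cells; inhibitors lower the luminescence signal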
[15] = target: T3, Corticotropin-releasing factor receptor 2/Corticotropin-releasing factor-binding protein (Homo sapiens, UniProt P24387+Q13324); assay: Dose Response confirmation of uHTS hits for small molecule antagonists of the CRF-binding protein and CRF-R2 receptor complex.; assay type: functional; conditions: read-out: IC50_Mean
T3 sequence (Q13324 whole entry): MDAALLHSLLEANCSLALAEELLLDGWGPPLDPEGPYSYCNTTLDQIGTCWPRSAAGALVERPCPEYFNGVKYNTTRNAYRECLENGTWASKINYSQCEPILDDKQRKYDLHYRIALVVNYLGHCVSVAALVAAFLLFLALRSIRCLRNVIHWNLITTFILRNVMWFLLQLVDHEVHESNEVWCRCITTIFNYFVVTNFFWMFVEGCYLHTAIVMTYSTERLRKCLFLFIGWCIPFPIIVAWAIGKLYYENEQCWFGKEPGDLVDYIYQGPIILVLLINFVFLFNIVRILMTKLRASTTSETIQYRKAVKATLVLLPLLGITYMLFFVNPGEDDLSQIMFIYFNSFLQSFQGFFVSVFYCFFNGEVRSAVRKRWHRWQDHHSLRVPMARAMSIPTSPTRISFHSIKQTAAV
T3 sequence (P24387 whole entry): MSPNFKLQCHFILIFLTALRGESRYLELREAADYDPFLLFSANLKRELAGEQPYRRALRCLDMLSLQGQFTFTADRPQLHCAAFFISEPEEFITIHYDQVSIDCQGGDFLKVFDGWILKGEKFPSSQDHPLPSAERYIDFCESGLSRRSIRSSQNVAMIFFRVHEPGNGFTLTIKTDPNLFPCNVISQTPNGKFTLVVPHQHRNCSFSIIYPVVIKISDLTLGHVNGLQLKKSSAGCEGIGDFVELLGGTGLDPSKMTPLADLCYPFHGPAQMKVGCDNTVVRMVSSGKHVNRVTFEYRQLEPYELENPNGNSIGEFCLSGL

[16] = target: T3, Corticotropin-releasing factor receptor 2/Corticotropin-releasing factor-binding protein; assay: activators of CRF receptor 2 with binding protein – uHTS hits, confirmation (AID 602473); assay type: functional; conditions: read-out: EC50_Mean

SMILES: COCCCNc1nc2nonc2nc1N1CCN(Cc2cccc(C)c2)CC1
- EC50 [1]: > 260 µM (inactive)

SMILES: Cc1ccc(S(=O)(=O)N(CC(=O)NCc2ccco2)Cc2ccc(F)cc2)cc1
- EC50 [1]: > 260 µM (inactive)

SMILES: Cc1ccc(C(=O)c2cc(C)sc2NC(=O)CN2CCN(C(=O)c3ccco3)CC2)cc1
- CC50 [2]: 23.4 µM (active)

SMILES: N=C(NOC(=O)c1cccc(Cn2cc(C(F)(F)F)ccc2=O)c1)c1ccccc1
- AC50 (INS1): 7.96 µM (active)

SMILES: CCOC(=O)N1CCN(c2ncnc3c2cnn3-c2ccc(OC)cc2)CC1
- IC50 (Protein skinhead-1): > 100 µM (inactive)

SMILES: Cc1oc(-c2ccccc2F)nc1CS(=O)(=O)CC(=O)NCCCN1CCN(C)CC1
- EC50 [1]: > 260 µM (inactive)

SMILES: CC(OC(=O)c1oc2ccccc2c1COc1ccccc1)C(N)=O (stereo unspecified)
- EC50 [3]: 19.8 µM (inconclusive)
- EC50 [4]: 26.1 µM (active)
- EC50 [5]: > 38 µM (not active)
- EC50 [6]: > 120 µM (not active)
- EC50 [7]: 26.7 µM (active)

SMILES: CCN1CCN(CCCNC(=O)c2ccc(/C=C3/Oc4ccccc4N(Cc4cccc(C)c4)C3=O)cc2)CC1
- EC50 [4]: 13.9 µM (active)
- CC50 [2]: 5.99 µM (active)
- EC50 [6]: > 120 µM (not active)
- EC50 [7]: > 120 µM (not active)

SMILES: Cc1cc(OCCCCCNCCO)cc(C)c1Cl
- EC50 [8]: 17.6 µM (active)
- EC50 [9]: 17.8 µM (active)

SMILES: O=[N+]([O-])c1ccc(S(=O)(=O)N2CCSC2c2ccco2)cc1 (stereo unspecified)
- EC50 [1]: > 260 µM (inactive)

SMILES: CC(C)=CCC/C(C)=C/CC(C)(C)CNCCN1CCNCC1
- EC50 [10]: > 120 µM (not active)
- EC50 (H4): > 120 µM (not active)
- EC50 [8]: 5.89 µM (active)
- EC50 [9]: 6.28 µM (active)
- EC50 [11]: > 120 µM (not active)

SMILES: O=C(Nc1ccccc1O)C(c1ccccc1)c1ccccc1
- AC50 (INS1): 2.92 µM (active)

SMILES: c1ccc(COc2ccccc2CNC2CCCC2)cc1
- EC50 [1]: > 260 µM (inactive)

SMILES: O=C(/C=C/c1ccncc1)c1ccc(NC(=O)c2ccccc2F)cc1
- AC50 [12]: 5.5 µM (active)
- EC50 [8]: 0.813 µM (active)
- EC50 [9]: 1.12 µM (active)

SMILES: O=C(NN=C1c2ccccc2-c2ccccc21)c1cccc(Br)c1
- EC50 [8]: 4 µM (active)
- CC50 [2]: 15.1 µM (active)
- EC50 [9]: 4.02 µM (active)

SMILES: Cc1ccc(-n2nc(-c3ccco3)cc2C(=O)NCc2cccnc2)cc1
- EC50 [4]: > 120 µM (not active)
- EC50 [6]: 38.1 µM (active)
- EC50 [7]: > 120 µM (not active)

SMILES: S=c1[nH]cc(-c2ccccc2)n1-c1ccccc1Cl
- EC50 [1]: > 260 µM (inactive)

SMILES: Cc1ccc(CS(=O)(=O)Cc2ccc(C(=O)NC3CCCCCC3)o2)cc1
- EC50 [4]: 22.5 µM (active)
- EC50 [6]: > 120 µM (not active)
- EC50 [7]: 24.3 µM (active)

SMILES: O=C(Nc1cccc(Cl)c1)c1cccc(Oc2ccc([N+](=O)[O-])cc2Cl)c1
- EC50 [8]: 17.1 µM (active)
- EC50 [9]: 16.1 µM (active)

SMILES: COc1ccc(C2c3c(oc4ccccc4c3=O)C(=O)N2c2ccccn2)cc1OC (stereo unspecified)
- EC50 [8]: 20.7 µM (active)
- EC50 [9]: 17.2 µM (active)

SMILES: O=[N+]([O-])c1ccc(COc2ccc(-c3[nH]ncc3-c3ccc(Cl)cc3)c(O)c2)cc1
- AC50 [12]: 4.02 µM (active)
- CC50 [2]: > 40 µM (active)

SMILES: CCN1CCN(c2ccc(NC(=O)CCc3c(C)nc4c(-c5ccc(F)cc5)c(C)nn4c3C)cc2)CC1
- AC50 [12]: 2.15 µM (active)
- EC50 [13]: 32.4 µM (active)
- EC50 [14]: 1.48 µM (active)

SMILES: COc1ccc(CSc2nc(N3CCOCC3)c3c(c2C#N)CC(C)(C)OC3)cc1
- EC50 [4]: > 120 µM (not active)
- EC50 [13]: > 60 µM (not active)
- EC50 [14]: 2.52 µM (active)
- EC50 [6]: > 120 µM (not active)
- EC50 [7]: 18.5 µM (active)

SMILES: CCOc1ccc(Nc2nc(Cc3nnc(SCC(=O)c4ccc(C)c(C)c4)o3)cs2)cc1
- AC50 (INS1): 10.4 µM (active)

SMILES: CCn1c(C(=O)O)c(CC(=O)Nc2cccc(C(F)(F)F)c2)c2ccccc21
- AC50 [12]: 15.3 µM (active)

SMILES: Cc1c(Cl)ccc2c1NC(=O)C21NC(CCC(N)=O)[C@H]2C(=O)N(c3ccc(Cl)cc3)C(=O)[C@H]21 (stereo partly specified)
- IC50 [15]: > 47.1 µM (inactive)
- EC50 [16]: > 53 µM (inactive)
- EC50 [1]: > 260 µM (inactive)

SMILES: Cc1ccc2c(CN3CCN(S(=O)(=O)/C=C/c4ccccc4)CC3)cc(=O)oc2c1
- EC50 [1]: > 260 µM (inactive)

SMILES: CC(C)(C)NC1=NN=C(c2ccc(Cl)cc2)CS1
- IC50 (Protein skinhead-1): 13.9 µM (active)

SMILES: CC1(C)Cc2c(c(N3CCOCC3)nc3sc4c(NCc5ccccc5)nnnc4c23)CS1
- EC50 [4]: 10.6 µM (active)
- EC50 [13]: > 60 µM (not active)
- EC50 [14]: 1.13 µM (active)
- EC50 [6]: 20.8 µM (active)
- EC50 [7]: 25 µM (active)

SMILES: Cc1cccc(N/N=C/c2ccccc2O)c1
- AC50 [12]: 6.21 µM (active)

SMILES: CCOc1ccc(/C=N/NC(=O)C(C)N(c2ccc(OC)cc2)S(C)(=O)=O)cc1 (stereo unspecified)
- EC50 [1]: > 260 µM (inactive)
